On the set-up of assay [1]: method as in Chen et al. (2012) [15]. To be noted: DPPH in methanol; ref Chen et al. (2012) [15]; cited from earlier work. A general note: DPPH is a stable violet radical that fades when it is reduced.
In assay [2] the test system is peripheral blood mononuclear cells (PBMC). Nature of the assay: Cellular antiproliferative activity (PrestoBlue). Type of assay: cell-based, human. The note with it: 48 h, read-out: Peripheral Blood Mononuclear Cell (PBMC) IC50. The method, then: (2012) was performed. PBMC isolation and testing was approved by the Ethics Committee of the Department of Natural and Agricultural Sciences, University of Pretoria, Pretoria (Doc nr: EC120411-046; 17.05.2012). Briefly, peripheral blood mononuclear cells were isolated from blood that was freshly donated on the same day at the Student Clinic at the University of Pretoria. Mononuclear cells were isolated by centrifugation over Ficoll-Hypaque, a density gradient solution, with a density gradient of 1.07 g/mL. A layer of fresh heparinized venous blood was layered on the Ficoll-Hypaque at a ratio of 1:1 with supplemented RPMI 1640 media and then subjected to centrifugation at 3000 rpm for 30 min. Through centrifugation, the whole blood sample was separated into its different layers. […] The cells were counted and seeded in 96-well plates with a cell density of 10,000 cells/mL. The following formula was used to adjust the cell concentrations (Equation 1): (1) Concentration of the cells=Cells counted/number of blocks counted×10000.
The HepG2 cell line was seeded with a concentration of 1 × 10^5 cells/well. […] The absorbance was read at 490 nm with a reference wavelength of 690 nm using a BIO-TEK Power-Wave XS multiwell plate reader. The assay was performed in triplicate, and the mean IC50 values were calculated.

Where two headings read alike, the source gives them in different places.

Consider `C[C@@H]1O[C@@H](O[C@@H]2[C@@H](O)[C@H](OCCc3ccc(O)c(O)c3)O[C@H](CO)[C@H]2OC(=O)/C=C/c2ccc(O)c(O)c2)[C@H](O)[C@H](O)[C@H]1O` [Verbascoside], for which the IC50 (in general, the concentration that inhibits the measured activity by half) in assay [1] is 11.4 µM; in assay [2], 170 ± 3.73 µM; in assay [2] (Homo sapiens, PBMC), above 100 µM.

(Values after PMC6600574 (Molecules, 2019).)
